Measured values from PMC11188489, “Pharmacokinetic assessment of tacrolimus in combination with deoxyschizandrin in rats” (Frontiers in Pharmacology, 2024).

Columns and labels:
[1] = Pharmacokinetics of Tac in rats alone or co-administered with deoxyschizandrin or Wuzhi capsule (UHPLC-MS/MS of plasma); assay type: in vivo, SD rats; conditions: for AUMC0→t / AUC(0-inf) / AUC(0-t) / Cmax / MRT / Tmax / half-life: rat plasma; for AUC(0-inf) / AUC(0-t) / Cmax / MRT / Tmax / half-life: male, SD, rat, plasma
Description: The mobile phase A was acetonitrile, and mobile phase B was 0.1% formic acid in water, and the initial mobile phase of gradient elution program was consisted of 60% phase A and 40% phase B. The sample injection volume was set at 10 μL. Gradient elution program was supplied in Supplementary Table S1.
The mass spectrometry detection was achieved on an Agilent 6460A mass spectrometer with ESI source. […] The settings of the mass spectrometer source were as follows: capillary voltage 4,000 V, sheath gas flow 12 L/min, temperature 400°C, dry gas (nitrogen) flow 10 L/min and temperature 350°C, nebulizer pressure 45 psi. All analytes were detected in positive ionization mode. Collision gas (high purity liquid nitrogen) was set at 0.25 MPa. The structures of both two analytes and IS are display in Figure 1.
The pretreatment was performed for the plasma sample by one-step protein precipitation, Briefly, 100 μL sample was transferred into a 1.5 mL EP tube prior to adding with 300 μL methanol(containing 200 ng/mL IS). The mixture was vortex-mixed for 30 s before centrifugation at 17,400 g for 10 min at room temperature, and 100 μL of the supernatant was diluted with 100 μL of acetonitrile (v/v, 1:1) Then, a 10 μL aliquoted of diluted solution was injected into the UHPLC-MS/MS system for analysis.
The protocol of the animal study was approved by the Experimental Animal Ethics Committee of the Shanghai University of Traditional Chinese Medicine. Specific Pathogen Free (SPF) grade SD rats, male, 8 weeks old, 200–250 g, were obtained from the animal experiment center of Shanghai University of Traditional Chinese Medicine. After passing quarantine, the rats were adaptive fed for 2 days. Rats were fasted for 12–14 h, followed by the initiation of pharmacokinetic study of Tac and deoxyschizandrin. This animal study was carried out in accordance with the National Institutes of Health Guide for the Care and Use of Laboratory animals.
In this study, 42 rats were divided equally into seven groups of six rats each, numbered NG2201-NG2207. Among them, the NG2201 and NG2202 group was dosed with 150 mg/kg deoxyschizandrin alone to study the PK of deoxyschizandrin in rats after single and multiple doses; the NG2203 group was administrate dosed with 1.0 mg/kg of Tac; the NG2204-NG2206 groups were dosed with 75, 150, and 300 mg/kg of deoxyschizandrin plus 1.0 mg/kg Tac, respectively, and the NG2207 group was dosed with the Wuzhi capsule (approximately equal to 150 mg/kg of deoxyschizandrin) plus 1.0 mg/kg of Tac ([Teng et al., 2022]). The detailed dosing regimen is shown in Table 2, and all dose in this experiment were calculated according to clinical dose. Blood samples (approximately 300 μL for each) for PK analysis were collected into lithium–heparin tubes. The plasma sampling schedules are outlined below: Blood samples were drawn pre-dose, at 5, 10, 20 and 30 min, and at 1, 1.5, 2, 4, 8 and 24 h after drug administration. The blood samples were centrifuged at 5,000 g for 15 min at 4°C to collect plasma samples, which were placed −80 refrigerator.
The rat plasma collected from each group was pretreated according to the method in section 2.5, and exposure levels of Tac and deoxyschizandrin were determined using the above established UHPLC-MS/MS method and the PKs were calculated using DAS software using non-compartment model (version 2.0, China Pharmacological Society). The data were presented as mean ± SD.

[2] = set-up: method as in Abushammala, 2021; conditions: ref Abushammala, 2021; cited from earlier work
[3] = Stability of the two analytes in rat plasma under different storage conditions; assay type: in vitro ADME; conditions: n=5
Description: To prepare the stock solution, approximately 2.00 mg of Tac, deoxyschizandrin and IS were accurately weighed and dissolved in methanol, respectively. The stock solutions of Tac and deoxyschizandrin with a final concentration of 1.00 mg/mL was obtained, and the IS stock solution was diluted to 100.00 ng/mL using methanol before use. The stock solutions were aliquoted and stored at −80°C. Combined working solutions were prepared by diluting the stock solution using 10% aqueous methanol at the following concentrations: 5.00, 10.00, 20.00, 50.00, 100.00, 200.00, 500.00, 1,000.00, and 2,000.00 ng/mL. Blank rat plasma was used to prepare the calibration standards. Quality-control (QC) samples of two analytes were prepared separately in the same manner at three concentrations, namely, 10 (low concentration), 100 (middle), 1,000 ng/mL (high), and all QC samples were stored at −80°C.
The methodology validation was completed according to FDA guidelines and Chinese Pharmacopoeia (2015 edition), and the linearity, inter- and intra-precision and accuracy, matrix effect and extraction recovery, stability and specificity of this method were validated according to previous study ([Lu et al., 2022]; [Wang et al., 2022]; [Shu et al., 2016]).

[4] = 1 mg/kg, NG2203: 1.0 mg/kg of Tac alone
[5] = 1 mg/kg, NG2204: 1.0 mg/kg of Tac plus 75 mg/kg deoxyschizandrin
[6] = 1 mg/kg, NG2205: 1.0 mg/kg of Tac plus 150 mg/kg deoxyschizandrin
[7] = 1 mg/kg, NG2206: 1.0 mg/kg of Tac plus 300 mg/kg deoxyschizandrin
[8] = 1 mg/kg, NG2207: 1.0 mg/kg of Tac plus Wuzhi capsule (equivalent to 150 mg/kg deoxyschizandrin)
[9] = 1 mg/kg, Tac 1 mg/kg alone (NG2203)
[10] = 1.0 mg/kg of Tac plus Wuzhi capsule (equivalent to 150 mg/kg deoxyschizandrin)

For `C=CC[C@@H]1/C=C(\C)C[C@H](C)C[C@H](OC)[C@H]2O[C@@](O)(C(=O)C(=O)N3CCCC[C@H]3C(=O)O[C@H](/C(C)=C/[C@@H]3CC[C@@H](O)[C@H](OC)C3)[C@H](C)[C@@H](O)CC1=O)[C@H](C)C[C@@H]2OC` [Tac, Tacrolimus], the “increase of C max of Tac after co-administered deoxyschizandrin” value ([1]; 75, 150, 300 mg/kg deoxyschizandrin plus 1 mg/kg Tac vs Tac alone, rats) was 3-4 fold, the AUMC0→t ([1]; NG2203: 1.0 mg/kg of Tac alone) was 613.05 ± 182.15 ng. h2/mL and the AUMC0→t ([1]; NG2204: 1.0 mg/kg of Tac plus 75 mg/kg deoxyschizandrin) was 2107.22 ± 701.25 ng. h2/mL. The AUMC0→t ([1]; NG2205: 1.0 mg/kg of Tac plus 150 mg/kg deoxyschizandrin) was 1915.12 ± 621.91 ng. h2/mL, the AUMC0→t ([1]; NG2206: 1.0 mg/kg of Tac plus 300 mg/kg deoxyschizandrin) was 3,315.05 ± 1,100.65 ng. h2/mL and the AUMC0→t ([1]; NG2207: 1.0 mg/kg of Tac plus Wuzhi capsule (equivalent to 150 mg/kg deoxyschizandrin)) was 2395.69 ± 1,225.18 ng. h2/mL. The “mean C max lower with Wuzhi capsule compared with deoxyschizandrin” value ([1]; Tac 1.0 mg/kg plus Wuzhi capsule vs plus 150 mg/kg deoxyschizandrin, rats) was 11.23 ng/mL, the AUC(0-inf) [1, 4] was 105 ± 31.3 ng·h/mL and the AUC(0-t) [1, 4] was 95.1 ± 32.6 ng·h/mL. The Cmax [1, 4] was 14.3 ± 4.73 ng/mL, the MRT [1, 4] was 6.54 ± 0.55 h and the Tmax [1, 4] was 1.33 ± 0.52 h. It also gave a half-life [1, 4] of 7.3 ± 3.06 h, an AUC(0-inf) [1, 5] of 351 ± 117 ng·h/mL and an AUC(0-t) [1, 5] of 314 ± 99.4 ng·h/mL. It also gave a Cmax [1, 5] of 43.2 ± 13.7 ng/mL, an MRT [1, 5] of 6.69 ± 0.25 h and a Tmax [1, 5] of 1.17 ± 0.41 h. The half-life [1, 5] was 7.31 ± 1.04 h, the AUC(0-inf) [1, 6] was 331 ± 98 ng·h/mL and the AUC(0-t) [1, 6] was 315 ± 92.2 ng·h/mL. The Cmax [1, 6] was 54.5 ± 14.4 ng/mL, the MRT [1, 6] was 6.02 ± 0.53 h and the Tmax [1, 6] was 1.08 ± 0.49 h. For the same compound, the half-life [1, 6] was 5.04 ± 1.95 h, the AUC(0-inf) [1, 7] was 534 ± 176 ng·h/mL and the AUC(0-t) [1, 7] was 486 ± 149 ng·h/mL. It also gave a Cmax [1, 7] of 67.4 ± 18.6 ng/mL, an MRT [1, 7] of 6.76 ± 0.31 h and a Tmax [1, 7] of 0.75 ± 0.27 h. The half-life [1, 7] was 6.59 ± 1.62 h, the AUC(0-inf) [1, 8] was 388 ± 217 ng·h/mL and the AUC(0-t) [1, 8] was 340 ± 193 ng·h/mL. It also gave a Cmax [1, 8] of 43.2 ± 21.9 ng/mL, an MRT [1, 8] of 7.23 ± 1.04 h and a Tmax [1, 8] of 1.5 ± 0.55 h. It also gave a half-life [1, 8] of 8.27 ± 2.2 h, an AUC(0-inf) [1, 9] of 105 ± 31.3 ng·h/mL and an AUC(0-t) [1, 9] of 95.1 ± 32.6 ng·h/mL. The AUC(0-t) ([1]; 1 mg/kg, Tac alone (NG2203)) was 95.1 ± 32.6 ng·h/mL, the AUC(0-inf) [1, 10] was 388 ± 217 ng·h/mL and the AUC(0-t) [1, 10] was 340 ± 193 ng·h/mL. The AUC(0-t) ([1]; Tac after co-administration of deoxyschizandrin (NG2205)) was 315 ± 92.2 ng·h/mL, the AUC(0-t) ([1]; Tac co-administrated with deoxyschizandrin (NG2205)) was 315 ± 92.2 ng·h/mL and the average bioavailability [2] was 25%. For the same compound, the “Auto-sampler stability (24h, 4℃) Mean ± SD” value ([3]; Nominal Conc. 10 ng/mL) was 10.23±0.51, the “Bench-top stability (8h, RT) Mean ± SD” value ([3]; Nominal Conc. 10 ng/mL) was 10.39±0.41 and the “Frozen-thaw stability (3 times) Mean ± SD” value ([3]; Nominal Conc. 10 ng/mL) was 10.55±0.54. The “Long-term stability (1 month, -80℃) Mean ± SD” value ([3]; Nominal Conc. 10 ng/mL) was 10.35±0.14, the “Auto-sampler stability (24h, 4℃) Mean ± SD” value ([3]; Nominal Conc. 100 ng/mL) was 103.90±2.74 and the “Bench-top stability (8h, RT) Mean ± SD” value ([3]; Nominal Conc. 100 ng/mL) was 102.33±1.53. For the same compound, the “Frozen-thaw stability (3 times) Mean ± SD” value ([3]; Nominal Conc. 100 ng/mL) was 110.23±5.21, the “Long-term stability (1 month, -80℃) Mean ± SD” value ([3]; Nominal Conc. 100 ng/mL) was 101.09±1.01 and the “Auto-sampler stability (24h, 4℃) Mean ± SD” value ([3]; Nominal Conc. 1000 ng/mL) was 1010.05±13.85. The “Bench-top stability (8h, RT) Mean ± SD” value ([3]; Nominal Conc. 1000 ng/mL) was 1009.93±11.80, the “Frozen-thaw stability (3 times) Mean ± SD” value ([3]; Nominal Conc. 1000 ng/mL) was 1025.45±12.50 and the “Long-term stability (1 month, -80℃) Mean ± SD” value ([3]; Nominal Conc. 1000 ng/mL) was 1008.72±11.30.
